Holding throughout (test): growth of human tumour cells (NCI), 48 h
In assay [1] the test system is M14 melanoma.
Assay [2] concerns HOP-92 NSCLC.
In assay [3] the test system is HOP-62 NSCLC.
The subject of assay [4] is KM12 colon.
Assay [5] concerns SK-MEL-5 melanoma.
Assay [6] concerns DU-145 prostate.
For assay [7], the system named is HS 578T breast.
Assay [8] relates to LOX IMVI melanoma.
The test system of assay [9] is EKVX NSCLC.
Assay [10] has as its system UO-31 renal.
The subject of assay [11] is CCRF-CEM leukemia.
Assay [12] concerns A498 renal.
In assay [13] the test system is PC-3 prostate.
In assay [14] the test system is NCI/ADR-RES ovarian.
Assay [15] relates to OVCAR-5 ovarian.
Assay [16] has as its system SF-539 CNS.
The test system of assay [17] is T-47D breast.

In PubChem BioAssay (NCI) one finds TGI and GI50 data, which are given here for 20 compounds.

Where “and” joins values, the source holds several entries; their conditions need not be identical. Equal entries are not always repeated.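 Assay format: 96-well plates, 48-hour exposure. GI50: concentration for 50% inhibition of growth. TGI marks complete inhibition of growth.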

As for `Nc1ccc(-c2nc3ccc(F)cc3s2)cc1Cl`, the TGI in assay [1], in assay [2], in assay [3], in assay [4], in [5] and in assay [6] was above 100 µM in each case. For the same compound, the TGI in assay [7], in assay [8], in assay [9], in assay [10], in assay [11] and in [12] was above 100 µM throughout. In addition, the TGI in assay [13], in assay [14], in [15] and in assay [16] was above 100 µM in each case.

For the compound `COc1ccc2c(O)c(S(=O)(=O)c3ccc(C)cc3)c(=O)oc2c1OC`, the TGI in assay [1], in assay [2], in assay [17], in assay [4], in assay [5] and in assay [6] was above 100 µM each time. Further, the TGI in assay [7], in assay [9], in [10], in assay [11], in assay [13] and in [14] was above 100 µM throughout. For the same compound, the TGI in assay [15] and in assay [16] was above 100 µM each time.

Turning to `O=C(N=Nc1ccc(Cl)cc1Cl)NNc1ccc(Cl)cc1Cl`, the TGI in assay [3] stood at 18.6 µM; in [17], 77.3 µM; in assay [5], 29.2 µM; in [6], 33.3 µM; in [8] it was 30.4 µM; in assay [10] it was 37.5 µM. Moreover, the TGI worked out at 59.6 µM in [11], 33.1 µM in assay [12], 34.8 µM in assay [13] and 44 µM in [15].

As for `CCCCc1ccc(-n2sc3ncc(-c4ccccc4)cc3c2=O)cc1`, the TGI in [1] was above 100 µM; in assay [2], above 100 µM; in [3], above 100 µM; in assay [17], 69.5 µM; in assay [4], above 100 µM; in [5], above 100 µM. The TGI in [6], in assay [8], in assay [9], in assay [10], in assay [11] and in assay [12] was above 100 µM each time. Further, the TGI in [13], in assay [14] and in assay [15] was above 100 µM in each case.

With `O=C(O)c1nc2ccc(C(F)(F)F)cc2nc1Nc1ccc(Cl)c(Cl)c1`, the TGI in [3] came out at 20.6 µM; in assay [4], 20.5 µM; in assay [5] it was 23.7 µM; in [7], 41.6 µM; in assay [8] it was 21.5 µM; in assay [9] it was 22.8 µM. For the same compound, the TGI was determined as 18.2 µM in assay [10]; 27.4 µM in [12]; 15.8 µM in assay [13]; 19.7 µM in [14]; 28.9 µM in [15].

For the compound `CC(=O)C(C)C(=O)N1C(=O)N(C)C2(C)N(C)C(=O)NC12C` (configuration not stated), the TGI in assay [1], in assay [2], in assay [3], in [4], in [5] and in assay [6] was above 100 µM each time. In addition, the TGI in [7], in assay [9], in assay [10], in assay [14], in [15] and in assay [16] was above 100 µM throughout.

As to `CC(=O)NC1(NC(C)=O)C2CC(C1Cc1ccccc1)C(C)(C)C2C` (configuration not stated), the TGI in assay [1], in [2], in assay [3], in assay [17], in assay [4] and in assay [5] was above 100 µM each time. Besides, the TGI in assay [6], in [7], in [9], in assay [10], in assay [11] and in assay [12] was above 100 µM in each case. Also, the TGI in assay [13], in assay [15] and in [16] was above 100 µM each time.

In the case of `COc1cccc(-c2cc(=O)c3cc4c(cc3[nH]2)OCO4)c1`, the TGI in [1] is 2.95 µM; in assay [2], above 100 µM; in [3], 21.9 µM; in assay [5], 0.327 µM; in [8], above 100 µM; in assay [9], above 100 µM. In addition, the TGI was above 100 µM in assay [10]; above 100 µM in [11]; 1.45 µM in assay [12]; 3.02 µM in [15]; 0.317 µM in [16].

Consider `COc1cc(C(=O)N[C@H]2CCc3cc(OC)c(OC)c(OC)c3-c3ccc(SC)c(=O)cc32)cc(OC)c1OC`, for which the TGI in assay [2] is 25 µM; in [3], 25 µM and > 100 µM; in assay [4], 16.4 µM; in [5], 0.324 µM and 0.0331 µM; in [8], 25 µM and 19.2 µM; in [9] it was 25 µM. The TGI is 25 µM and 22.2 µM in assay [10]; 25 µM and > 100 µM in [11]; 25 µM in [15]; 0.0145 µM in assay [16]. Besides, the GI50 in [3] is 0.47 µM; in assay [10], 0.266 µM.

On to `c1ccc2cc3c(NC4=NCCO4)cccc3cc2c1`, for which the TGI in [1] was above 100 µM; in [2], 74 µM; in assay [3] it was above 100 µM; in assay [4], above 100 µM; in [5], above 100 µM; in [6], above 100 µM. The TGI in assay [7] was above 100 µM; in assay [8], 95 µM; in assay [9], above 100 µM; in assay [10], above 100 µM; in assay [11], 81.6 µM; in [12], above 100 µM. Moreover, the TGI in assay [13], in assay [14], in assay [15] and in [16] was above 100 µM in each case.

Regarding `CC(=O)c1cccc(NC(=O)C(=O)c2c(O)c3ccccc3oc2=O)c1`, the TGI in assay [1], in assay [2], in assay [3], in assay [17], in assay [4] and in [5] was above 100 µM throughout. Besides, the TGI in assay [7], in assay [8], in [9], in assay [10], in [11] and in assay [12] was above 100 µM each time. Moreover, the TGI in [13], in assay [14], in [15] and in [16] was above 100 µM throughout.

Regarding `CC(C)(C)OC(=O)N1NC(c2ccccc2)CC1c1ccccc1` (configuration not stated), the TGI is 58.8 µM in assay [1]; above 100 µM in assay [2]; above 100 µM in [3]; 56.2 µM in [17]; 41.9 µM in assay [4]; 45.5 µM in [5]. For the same compound, the TGI was above 100 µM in assay [6]; above 100 µM in assay [7]; above 100 µM in assay [9]; 53.2 µM in assay [10]; 71.5 µM in assay [11]; 74.4 µM in [12]. The figures for the TGI in [14], in assay [15] and in assay [16] were 47.9 µM, above 100 µM and above 100 µM, respectively.

`Nc1nc2ccc(Sc3ccc4nc(N)[nH]c(=O)c4c3)cc2c(=O)[nH]1`: the TGI in assay [1], in assay [2], in [17], in [4], in [5] and in [6] was above 100 µM each time. Moreover, the TGI in [7], in [9], in assay [10], in assay [11], in assay [13] and in assay [14] was above 100 µM each time. Also, the TGI in [15] and in assay [16] was above 100 µM throughout.

Consider `CC12CC(=O)Nc3ccccc3N1C(c1ccccc1)=NO2` (configuration not stated), for which the TGI in assay [1], in [2], in assay [3], in [4], in assay [5] and in assay [6] was above 100 µM in each case. For the same compound, the TGI in [7], in [9], in assay [10], in [11], in assay [12] and in assay [13] was above 100 µM in each case. Besides, the TGI in [14], in assay [15] and in assay [16] was above 100 µM each time.

On to `COc1ccc(-c2c(-c3ccc(OC)cc3)n3c(=O)n(C)c(=O)n23)cc1`, for which the TGI was above 100 µM in [1]; 76 µM in assay [2]; above 100 µM in assay [3]; 57.1 µM in [17]; above 100 µM in [4]; above 100 µM in assay [5]. For the same compound, the TGI in assay [6] was 65.2 µM; in assay [8], above 100 µM; in [9], above 100 µM; in assay [10] it was above 100 µM; in assay [11], above 100 µM; in assay [12], 95.3 µM. Moreover, the TGI in assay [13] is above 100 µM; in [14], 89.9 µM; in [16], 72.9 µM.

On to `CCC(C)C(N)C(=O)N/N=C\c1c2c(nc3ccccc13)-c1cc3c(c(=O)n1C2)COC(=O)[C@]3(O)CC` (some centres not stated), for which the TGI in [1] is 1.6 µM; in assay [2], 1.8 µM; in assay [3], 1.15 µM; in [17] it was 0.188 µM; in assay [4], above 22.5 µM; in [5], 0.452 µM. The TGI in assay [6] was 2.04 µM; in assay [7] it was above 100 µM; in assay [8] it was 1.08 µM; in assay [9] it was above 100 µM; in assay [10], 1.4 µM; in assay [12] it was 1.43 µM. Also, the TGI in assay [13] was above 100 µM; in assay [15], above 43.5 µM; in [16] it was 0.0223 µM.

Consider `O=Cc1ccc(OC[C@H]2COC(=O)N2)cc1`, for which the TGI in assay [1], in assay [3], in assay [17], in assay [4], in assay [5] and in [6] was above 100 µM each time. Further, the TGI in [7], in assay [8], in [9], in [10], in [11] and in assay [13] was above 100 µM throughout. Moreover, the TGI in [14], in [15] and in assay [16] was above 100 µM throughout.

For the compound `O=c1cc(-c2ccccc2)[nH]c2cc(F)cc(F)c12`, the TGI in assay [1], in assay [2], in [3], in assay [4], in [5] and in [8] was above 100 µM in each case. Moreover, the TGI was above 100 µM in assay [10], above 100 µM in assay [11], above 100 µM in assay [15] and 85.5 µM in assay [16].

As for `O=c1[nH]ncc2[nH]c3c4ccccc4ccc3c12`, the TGI was above 100 µM in assay [1]; 87.1 µM in [2]; above 100 µM in assay [3]; above 100 µM in assay [17]; above 100 µM in assay [4]; above 100 µM in assay [5]. The TGI in assay [6], in assay [8], in assay [9], in assay [10], in assay [11] and in assay [13] was above 100 µM each time. Moreover, the TGI in assay [14], in assay [15] and in assay [16] was above 100 µM in each case.

For the compound `CC(=O)C(C(=O)c1ccc(C)cc1)[C@H]1OC(C)(C)O[C@H]1[C@H]1COC(C)(C)O1` (some centres not stated), the TGI in assay [1] turned out to be 14.4 µM; in assay [2] it was 16.7 µM; in assay [3], 14.3 µM; in assay [17], 18.9 µM; in [4], 18.9 µM; in [5] it was 12.2 µM. Also, the TGI in assay [7] is above 50 µM; in [8], 8.16 µM; in assay [9] it was 11.7 µM; in assay [10], 14 µM; in assay [12], 14.7 µM; in assay [13], 9.17 µM. The TGI in [14] is above 50 µM; in assay [15], 18.3 µM; in assay [16], 6.3 µM.
